{"source": "patent US5846986A", "about": "“Therapeutic phenoxyalkylazoles and phenoxyalkylazines” (Sanofi, priority 1997, dated 1998)", "tested_on": "panel of 10 human rhinopicornavirus serotypes HRV-3, -4, -5, -9, -16, -18, -38, -66, -75 and -67 (panel B)", "experiment": "automated TCID-50 assay, HeLa cells, panel B of 10 human rhinopicornavirus serotypes", "assay_type": "cell-based", "details": "minimum concentration required to inhibit 50% of the tested serotypes, number of serotypes tested in column N, 3 days, 33° C.", "method": "The MIC values were determined by an automated tissue culture infectious dose 50% (TCID-50) assay. HeLa cells in monoloyers in 96-well cluster plates were infected with a dilution of picornavirus which had been shown empirically to produce 80% to 100% cytopathic effect (CPE) in 3 days in the absence of drug. The compound to be tested was serially diluted through 10, 2-fold cycles and added to the infected cells. After a 3 day incubation at 33° C. and 2.5% carbon dioxide, the cells were fixed with a 5% solution of glutaraldehyde followed by staining with a 0.25% solution of crystal violet in water. […]\nIn the above test procedures, representative compounds of formula I were tested against some the serotypes from either a panel of fifteen human rhinopicornavirus (HRV) serotypes, (noted in the table as panel T) namely, HRV-2, -14, -1A, -1B, -6, -21, -22, -15, -25, -30, -50, -67, -89, -86 and -41 or against some of the serotypes from a panel of 10 human rhinopicornavirus serotypes namely HRV-3, -4, -5, -9, -16, -18, -38, -66, -75 and -67, (noted in the table as panel B) and the MIC value, expressed in micrograms per milliliter […], for each rhinopicornavirus serotype was determined for each picornavirus, example le is given as an example of the data. […]"}
{"substance": "3-Methyl-5-[3-[4-(2-methyl-tetrazol-5-yl)-2,6-dimethylphenoxy]-propyl]-thiazole [Example 11]", "values": [{"measurement": "Mic50", "result": 0.148, "unit": "µg/mL"}]}
